What all share (type): cell-based
For one assay, the target named is Cyclin E1 (Homo sapiens, UniProt P24864+Q96SW2). Put plainly: Cyclin E1 Cellular Degradation Assay (MSD). Also noted: endogenous in cells; host or cells: OVCAR3. Conditions: for DC50 / Dmax: Cyclin E1 cellular degradation; for Dmax: maximum degradation; for Ratio of GSPT1 DC50/Cyclin E1 DC50: selectivity for degradation of Cyclin E1 over GSPT1. On the procedure:
Culturing cells: On Day 0, OVCAR3 cells were plated at 15,000 cells/well in 40 μL of culture medium (RPMI1640, 20% FBS, 0.01 insulin, 1% Anti/Anti) in a 384 well cell culture plate. Cell cultures were incubated for 24 hours at 37° C. and 5% CO2.
Coating MSD plates: On Day 1, rabbit anti-CCNE1 antibody (Abcam ab33911, 1 μg/mL in DPBS, […]) was dispensed to a Meso Scale Discovery plate (MSD L21XA). The MSD plate was spun briefly to ensure the solution coated the bottom of the well and incubated overnight at 4° C. On Day 2, the plate was washed 3 times with TBS +0.2% TWEEN, blocked for 1 hour with 3% MSD Blocker A (MSD R93AA-1, 30 μL/well), then washed again 3 times with TBS+0.2% TWEEN.
Treating and lysing cells: On Day 1, compounds of interest were dispensed into the cell cultures by acoustic dispensing technology. The cell cultures were then spun at 400 g for 4 minutes to disperse the compounds and incubated at 37° C. and 5% CO2 for 24 hours. After incubation, 40 μL of DPBS was added to the cell cultures to dilute the media. All liquid was gently discarded and immediately replaced with 30 μL of lysis buffer (MSD Tris Lysis buffer (MSD R60TX-2), Halt Protease inhibitor (ThermoFisher 78438), Phosphatase Inhibitor II (Sigma-Aldrich P5726), Phosphatase Inhibitor III (Sigma-Aldrich P0044), 0.02M PMSF (Sigma-Aldrich 7626), 0.1% SDS (VWR E719-100ML)). The plate was then sealed, shaken at 300 rpm at room temperature for 5 minutes, and freeze-thawed for optimum cell lysis.
Collecting data: After thawing, 25 μL of lysate was transferred to a coated MSD plate. The plate was then sealed and shaken at 300 rpm overnight in 4° C. On Day 3, the MSD plate was washed 3 times with TBS+0.2% TWEEN. Mouse anti-CCNE1 antibody (Abcam ab238081, 0.5 μg/mL in 1% MSD Blocker A, 10 μL/well) dispensed to the MSD plate, which was then sealed and shaken at room temperature for 3 hours. After the first antibody incubation, the plate was washed 3 times with TBS+0.2% TWEEN, then goat anti-mouse Sulfo-Tag antibody (MSD R32AC, 1 μg/mL in 1% MSD Blocker A, 10 μL/well) was dispensed to the MSD plate. The plate was sealed again and shaken at room temperature for 1 hour, then washed 3 times with TBS+0.2% TWEEN. After the final wash, 35 μL of 1× Read Buffer (MSD R92TC-1) was added to each well and the data was captured using the MSD plate reader. The reference compound, [2-(2,6-dioxopiperidin-3-yl)-4-methoxy-3-oxo-2,3-dihydro-1H-isoindol-5-yl]methyl N-[4-(3,4-difluorophenoxy)phenyl]carbamate, at […] was used to define […]. Assay results for each compound were reported as DC50, the concentration giving 50% response, and Dmax, the maximum response observed with the compound.

Another assay deals with GSPT1 (Homo sapiens, UniProt P15170+Q96SW2). Put plainly: GSPT1 Cellular Degradation Assay (DF15-GSPT1-ePL). The note with it: DF15-GSPT1-ePL cells, 20 hours. The arrangement: expressed in transfected cells. From the text:
DF15-GSPT1-ePL was used for intracellular GSPT1 protein degradation detection in form of chemiluminescent signal, which was built on a human DF15 cell line (CVCL_Y429) with conditional co-expression of chimeric GSPT1 (target) and ePL/donor (enhanced ProLabel® by DiscoverX for enzyme fragment complementation with donor-acceptor pairing). The cells used the culture medium in two arrangements for assay and maintenance. During assay, it used Core-RPMI 1640 medium with 10% Fetal Bovine Serum (Heat Inactivated) and 1× Penicillin/Streptomycin; and during passage maintenance, used added ingredients: 0.1 mM NEAA, 1 mM sodium pyruvate, 25 mM Hepes, 0.1% Pluronic F-68, 1× Glutamin, 4 μg/mL Blasticidin (selection agent). Detection was performed on a 1536 well tissue culture plate (Corning #3727) with cells seeded in 3.5 μL core-RPMI 1640 at density of 0.25 million/mL after the pre-titrated test compounds in DMSO on ECHO plate were dispensed onto the assay plate by use of ECHO (liquid handing system via acoustic energy from Labcyte). Assay incubation lasted 20 hours in 37° C. incubator with 5% CO2; then followed by 30 minutes of plate-cooling at room temperature; then detection-reagent-mix was added in 3.5 μL/well with pre-defined proportion of enzyme acceptor, substrate, and lysis buffer. Plate signal reading for luminescence on an EnVision plate reader (PerkinElmer) was conducted after 60 minutes of former step at room temperature. Raw data was collected and processed with Dotmatics (data analyzer) for test compound's potency values. The reference compound, 3-[5-(3,6-dimethoxyisoquinolin-1-yl)-1-oxo-2,3-dihydro-1H-isoindol-2-yl]piperidine-2,6-dione, at […] was used to define 75% response. Assay results for each compound were reported as DC50, the concentration giving 50% response, and Dmax, the maximum response observed with the compound.

The subject of another assay is Phospho-Rb (Ser807/811). Put plainly: Phospho-Retinoblastoma (pRB) Cellular Assay. The note with it: Homo sapiens, OVCAR-3, NIH OVCAR3 cells, 24 hours; for IC50: concentration giving 50% response; for Emax: maximum response, reference compound at 10 μM = 100%, read-out: pRB Ymax. As for the experimental part: Phospho-Retinoblastoma (pRB) Cellular Assay
NIH OVCAR3 (HTB-161, American Type Culture Collection, Manassas VA) cells were grown up to passage 10 in culture media made up of RPMI (11835-030 Gibco, Grand Island NY), 20% HI FBS (16140-071, Gibco, Grand Island NY), and 0.01 mg/mL insulin from bovine pancreas (I6634-1G, Sigma Aldrich, St. Louis, MO).
The cells were seeded in a 384-well CulturPlate (6007688, Perkin Elmer, Waltham MA) at a density of 10,000 cells/well in 20 μL of the above culture media and incubated overnight at 37° C. and 5% CO2.
The next day, cells were treated using an Echo 650 (Beckman Coulter, Indianapolis IN) acoustic dispenser with 40 nL of compounds dissolved in DMSO at the appropriate serial dilutions (10 mM to […]). Cells were then incubated for 24 hours as above.
After 24 hours elapsed, media was removed from each well and shortly after 20 μL of the following mix was added: 12 μL deionized water, 4 μL lysis buffer, 4 μL of reconstituted antibody mix, and 1:100 phosphatase inhibitor. These components belong to the Phospho-Rb (Ser807/811) Cellular Kit (64RBS807PEY, Perkin Elmer, Waltham MA).
Plates were sealed and incubated away from light at room temperature for at least 4 hours before reading them on an EnVision plate reader (Perkin Elmer, Waltham MA) according to the kit manufacturer's protocol. The reference compound, N-(5-{[(5-tert-butyl-1,3-oxazol-2-yl)methyl]sulfanyl}-1,3-thiazol-2-yl)piperidine-4-carboxamide, at 10 μM was used to define 100% response. Assay results for each compound were reported as IC50, the concentration giving 50% response, and Ymax, the maximum response observed with the compound.

Chain of Cyclin E1 (P24864 whole entry): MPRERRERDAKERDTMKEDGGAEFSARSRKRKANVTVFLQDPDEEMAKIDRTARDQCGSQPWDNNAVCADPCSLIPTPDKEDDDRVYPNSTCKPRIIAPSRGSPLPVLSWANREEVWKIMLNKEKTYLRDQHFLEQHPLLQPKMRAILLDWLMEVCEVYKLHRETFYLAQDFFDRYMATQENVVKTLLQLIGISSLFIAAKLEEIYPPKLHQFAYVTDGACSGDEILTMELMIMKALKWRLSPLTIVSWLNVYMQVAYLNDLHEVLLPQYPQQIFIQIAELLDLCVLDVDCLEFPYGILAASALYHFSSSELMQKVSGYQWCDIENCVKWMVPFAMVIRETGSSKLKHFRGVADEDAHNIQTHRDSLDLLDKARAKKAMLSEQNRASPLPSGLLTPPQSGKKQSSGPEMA
Chain of Cyclin E1 (Q96SW2 whole entry): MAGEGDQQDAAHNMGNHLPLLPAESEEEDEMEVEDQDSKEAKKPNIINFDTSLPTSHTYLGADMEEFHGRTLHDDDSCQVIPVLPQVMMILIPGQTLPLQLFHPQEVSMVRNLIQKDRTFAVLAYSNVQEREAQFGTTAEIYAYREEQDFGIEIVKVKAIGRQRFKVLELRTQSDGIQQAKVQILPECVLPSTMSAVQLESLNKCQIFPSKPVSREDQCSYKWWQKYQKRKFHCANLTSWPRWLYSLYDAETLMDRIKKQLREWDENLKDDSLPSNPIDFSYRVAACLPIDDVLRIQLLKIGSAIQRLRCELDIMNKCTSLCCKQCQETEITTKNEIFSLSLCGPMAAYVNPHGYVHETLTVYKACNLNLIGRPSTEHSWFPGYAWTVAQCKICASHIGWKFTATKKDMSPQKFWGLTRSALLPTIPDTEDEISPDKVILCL
Chain of Cyclin E1 (Q16531 whole entry partner): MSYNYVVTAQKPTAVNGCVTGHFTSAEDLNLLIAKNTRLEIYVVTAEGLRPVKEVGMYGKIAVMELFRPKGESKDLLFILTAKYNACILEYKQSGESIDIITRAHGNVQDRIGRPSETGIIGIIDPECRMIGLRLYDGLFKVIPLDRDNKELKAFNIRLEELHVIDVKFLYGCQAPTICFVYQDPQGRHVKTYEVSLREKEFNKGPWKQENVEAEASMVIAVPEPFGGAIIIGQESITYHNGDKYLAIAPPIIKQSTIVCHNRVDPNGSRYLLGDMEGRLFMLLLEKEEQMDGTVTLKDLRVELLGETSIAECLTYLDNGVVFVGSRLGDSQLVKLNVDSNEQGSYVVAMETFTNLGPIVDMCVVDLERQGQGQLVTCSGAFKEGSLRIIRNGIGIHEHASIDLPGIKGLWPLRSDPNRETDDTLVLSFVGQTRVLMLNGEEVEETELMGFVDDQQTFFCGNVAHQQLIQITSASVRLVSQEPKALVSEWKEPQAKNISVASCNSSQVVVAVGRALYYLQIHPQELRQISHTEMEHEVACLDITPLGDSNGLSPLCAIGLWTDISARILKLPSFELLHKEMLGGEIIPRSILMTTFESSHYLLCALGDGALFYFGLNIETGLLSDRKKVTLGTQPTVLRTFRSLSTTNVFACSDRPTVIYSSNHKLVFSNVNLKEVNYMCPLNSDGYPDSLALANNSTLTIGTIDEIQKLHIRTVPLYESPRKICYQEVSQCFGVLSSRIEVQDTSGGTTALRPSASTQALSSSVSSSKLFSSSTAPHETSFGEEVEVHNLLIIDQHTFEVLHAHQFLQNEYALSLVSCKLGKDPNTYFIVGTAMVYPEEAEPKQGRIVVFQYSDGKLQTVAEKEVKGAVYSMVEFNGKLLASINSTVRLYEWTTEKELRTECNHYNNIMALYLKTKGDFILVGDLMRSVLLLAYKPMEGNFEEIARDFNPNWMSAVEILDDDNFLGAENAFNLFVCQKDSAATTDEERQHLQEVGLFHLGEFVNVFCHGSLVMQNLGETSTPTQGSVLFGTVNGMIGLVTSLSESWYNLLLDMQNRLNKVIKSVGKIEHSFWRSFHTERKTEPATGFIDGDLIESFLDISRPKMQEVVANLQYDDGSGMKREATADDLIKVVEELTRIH
Chain of GSPT1 (P15170 whole entry, the tested form may be a part): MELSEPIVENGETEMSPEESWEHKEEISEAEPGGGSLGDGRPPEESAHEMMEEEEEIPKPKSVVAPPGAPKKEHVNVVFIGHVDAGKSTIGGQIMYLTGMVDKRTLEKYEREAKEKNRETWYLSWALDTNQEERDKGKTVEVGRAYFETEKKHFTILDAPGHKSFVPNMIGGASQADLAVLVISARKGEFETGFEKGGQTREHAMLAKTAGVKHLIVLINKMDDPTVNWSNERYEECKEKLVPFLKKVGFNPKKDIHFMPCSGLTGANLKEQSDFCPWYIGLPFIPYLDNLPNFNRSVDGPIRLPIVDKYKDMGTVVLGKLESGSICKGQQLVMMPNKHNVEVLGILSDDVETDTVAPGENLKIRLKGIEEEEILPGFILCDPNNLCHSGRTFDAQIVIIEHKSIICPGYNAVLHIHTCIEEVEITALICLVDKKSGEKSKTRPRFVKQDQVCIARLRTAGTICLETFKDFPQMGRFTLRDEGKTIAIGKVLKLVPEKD
Chain of GSPT1 (Q96SW2 whole entry, the tested form may be a part): as the sequence (Q96SW2 whole entry) above
Chain of GSPT1 (Q16531 whole entry partner, the tested form may be a part): as the sequence (Q16531 whole entry partner) above

As usually defined, the DC50 is the concentration at which degradation of the target reaches its halfway point. The low end stands for a more potent degrader, the high end for a less potent degrader. By Dmax is commonly meant the greatest extent of degradation seen. Broadly, the IC50 is the midpoint of a concentration-inhibition curve. As to `O=C1CCC(N2Cc3ccc(COC(=O)Nc4ccc(Oc5ccc(F)cc5)cc4)c(OC4CCOCC4)c3C2=O)C(=O)N1` (centres unmarked) [Example 133, [2-(2,6-dioxopiperidin-3-yl)-4-(oxan-4-yloxy)-3-oxo-2,3-dihydro-1H-isoindol-5-yl]methyl N-[4-(4-fluorophenoxy)phenyl]carbamate], on Cyclin E1, the DC50 was 25 nM, the Dmax came to 106% and the “Ratio of GSPT1 DC50/Cyclin E1 DC50” value is listed as more than 569. Also, on GSPT1, the DC50 is more than 14000 nM and the Dmax was 16%. For the same compound, in the assay on Phospho-Rb (Ser807/811), the IC50 worked out at 42 nM and the Emax is 145%.

`O=C1CCC(N2Cc3ccc(COC(=O)Nc4ccc(Oc5ccc(F)cc5)cc4F)c(O[C@@H]4CCCOC4)c3C2=O)C(=O)N1` (stereo partly drawn) [Example 147, [2-(2,6-dioxopiperidin-3-yl)-4-[(3R)-oxan-3-yloxy]-3-oxo-2,3-dihydro-1H-isoindol-5-yl]methyl N-[2-fluoro-4-(4-fluorophenoxy)phenyl]carbamate]: on Cyclin E1, half-maximal degradation (DC50) was put at 12 nM, the Dmax was determined as 110% and the “Ratio of GSPT1 DC50/Cyclin E1 DC50” value is given as >1,121. For the same compound, on GSPT1, the DC50 was more than 14000 nM and the Dmax stood at 2%. Moreover, in the assay with Phospho-Rb (Ser807/811), the IC50 came out at 43 nM and the Emax came to 137%.

Consider `O=C1CCC(N2Cc3ccc(COC(=O)Nc4ccc(Oc5ccc(F)c(F)c5)cc4)c(Oc4ccccc4)c3C2=O)C(=O)N1` (centres unmarked) [Example 63, [2-(2,6-dioxopiperidin-3-yl)-3-oxo-4-phenoxy-2,3-dihydro-1H-isoindol-5-yl]methyl N-[4-(3,4-difluorophenoxy)phenyl]carbamate], for which, on Cyclin E1, it took 113 nM to reach half-maximal degradation (DC50), the Dmax is 104% and the “Ratio of GSPT1 DC50/Cyclin E1 DC50” value is recorded as more than 124. For the same compound, at GSPT1, the DC50 was more than 14000 nM and the Dmax came to 41%. Moreover, in the assay on Phospho-Rb (Ser807/811), the IC50 was 136 nM and the Emax was found to be 121%.

With `O=C1CCC(N2Cc3ccc(COC(=O)Nc4ccc(Oc5ccc(F)c(F)c5)cc4)c(OC4CCC4)c3C2=O)C(=O)N1` (centres unmarked) [Example 126, [4-cyclobutoxy-2-(2,6-dioxopiperidin-3-yl)-3-oxo-2,3-dihydro-1H-isoindol-5-yl]methyl N-[4-(3,4-difluorophenoxy)phenyl]carbamate], on Cyclin E1, the DC50 was found to be 140 nM, the Dmax turned out to be 107% and the “Ratio of GSPT1 DC50/Cyclin E1 DC50” value is given as more than 100. On GSPT1, the DC50 is more than 14000 nM and the Dmax amounted to 9%. For the same compound, in the assay on Phospho-Rb (Ser807/811), the IC50 amounted to 117 nM and the Emax stood at 129%.

Regarding `O=C1CCC(N2Cc3ccc(COC(=O)Nc4ccc(Oc5ccc(F)cc5F)cc4)c(OC4CCOCC4)c3C2=O)C(=O)N1` (centres unmarked) [Example 139, [2-(2,6-dioxopiperidin-3-yl)-4-(oxan-4-yloxy)-3-oxo-2,3-dihydro-1H-isoindol-5-yl]methyl N-[4-(2,4-difluorophenoxy)phenyl]carbamate], at Cyclin E1, the DC50 was 67 nM, the Dmax worked out at 105% and the “Ratio of GSPT1 DC50/Cyclin E1 DC50” value is more than 210. For the same compound, on GSPT1, the DC50 is more than 14000 nM and the Dmax amounted to 8%. In the assay on Phospho-Rb (Ser807/811), the IC50 was 27 nM and the Emax is 170%.

For `COc1c(COC(=O)Nc2ccc(Oc3ccc(F)cc3C)cc2)ccc2c1C(=O)N(C1CCC(=O)NC1=O)C2` (centres unmarked) [Example 81, [2-(2,6-dioxopiperidin-3-yl)-4-methoxy-3-oxo-2,3-dihydro-1H-isoindol-5-yl]methyl N-[4-(4-fluoro-2-methylphenoxy)phenyl]carbamate], at Cyclin E1, it took 92 nM to reach half-maximal degradation (DC50), the Dmax stood at 110% and the “Ratio of GSPT1 DC50/Cyclin E1 DC50” value is recorded as more than 152. On GSPT1, the DC50 is more than 14000 nM and the Dmax was 37%. For the same compound, in the assay with Phospho-Rb (Ser807/811), the IC50 stood at 64 nM and the Emax is 103%.

Turning to `COc1c(COC(=O)Nc2ccc(Oc3cccc(C)c3)cc2)ccc2c1C(=O)N(C1CCC(=O)NC1=O)C2` (centres unmarked) [Example 11, [2-(2,6-dioxopiperidin-3-yl)-4-methoxy-3-oxo-2,3-dihydro-1H-isoindol-5-yl]methyl N-[4-(3-methylphenoxy)phenyl]carbamate], at Cyclin E1, half-maximal degradation (DC50) was put at 61 nM, the Dmax is 112% and the “Ratio of GSPT1 DC50/Cyclin E1 DC50” value is given as more than 228. Moreover, at GSPT1, the DC50 was more than 14000 nM and the Dmax was 33%. Further, in the assay with Phospho-Rb (Ser807/811), 356 nM corresponded to half-maximal inhibition (IC50) and the Emax stood at 98%.

`COc1c(COC(=O)Nc2ccc(Oc3ccc4sccc4c3)cc2)ccc2c1C(=O)N(C1CCC(=O)NC1=O)C2` (centres unmarked) [Example 114, [2-(2,6-dioxopiperidin-3-yl)-4-methoxy-3-oxo-2,3-dihydro-1H-isoindol-5-yl]methyl N-[4-(1-benzothiophen-5-yloxy)phenyl]carbamate]: at Cyclin E1, it took 282 nM to reach half-maximal degradation (DC50), the Dmax turned out to be 106% and the “Ratio of GSPT1 DC50/Cyclin E1 DC50” value is listed as more than 50. On GSPT1, the DC50 was more than 14000 nM and the Dmax amounted to 29%. In the assay on Phospho-Rb (Ser807/811), the IC50 came to 640 nM and the Emax came out at 110%.

Values taken from patent US20250084056A1, “SUBSTITUTED OXOISOINDOLINYL PIPERIDINE-2,6-DIONE COMPOUNDS” (BRISTOL-MYERS SQUIBB COMPANY, priority 2023, published 2025).
